Here are results for eight compounds from patent publication US9540362B2, “Sphingosine-1-phosphate receptor agonists, methods of preparing the same, and pharmaceutical compositions containing the same as an active agent” (LG LIFE SCIENCES LTD., priority 2013, dated 2017).

The structures appear in SMILES notation. Structures can show the parent of a compound that is named as a salt.

Experiment [1] relates to lymphocytes in blood. Description: Rat peripheral blood lymphocyte decrease. To be noted: male SD rat, administered once, 6 hours after administration. It is filed as in vivo. As for the experimental part:
Evaluation of Rat Peripheral Blood Lymphocyte Decrease
Lymphocyte decrease in blood by S1P1 agonist was evaluated using a male SD rat. After adapting a rat weighing about 250 g to a breeding facility for one week, a test compound was administered to it once. At 3 hours, 6 hours, 24 hours and 48 hours after administration, blood was taken from a tail caudal vein, and about 200 μl of the blood was put into an EDTA tube while preventing it from clotting, followed by measurement of the number of lymphocytes in blood. The number of lymphocytes was analyzed by a hematological examination device, Hemoanalyzer. The doses of the test compounds were 3 mg/kg for Example 52, 94, 108, 117, 142, 145, 146, 148 and 149 compounds, and 1 mg/kg for Example 150, 151, 153, 154, 155, 158, 159 and 161 compounds.

Experiment [2] deals with human sphingosine-1-phosphate 1 receptor (S1P1 receptor) (Homo sapiens, UniProt P21453). The experiment in a line: Ca2+ inducing ability using CHO cells overexpressing human S1P1 receptor (Calcium 5 assay kit). It counts as cell-based. To be noted: CHO cells overexpressing human S1P1, calcium RFU; S1P 1 μM = 100%. An excerpt:
Evaluation of Ca^2+ inducing ability of test compound using a cell line expressing human sphingosine-1-phosphate
CHO (Chinese hamster ovary) cells which overexpress human sphingosine-1-phosphate 1 receptor (S1P1 receptor) that react with sphingosine-1-phosphate (S1P) are used for a functional test method wherein an increase of calcium indicates a therapeutic efficacy of an agonist compound.
To prepare CHO cells which overexpress human S1P1˜S1P5, human clones for each subtype having HA at the N terminal residue (S1P1: EDG010TN00, S1P2: EDG020TN00, S1P3: EDG030TN00, S1P4: EDG060TN00, S1P5: EDG080TN00) were purchased from the Missouri S&T cDNA Resource Center and co-transfected with G-protein alpha subunit (G-alpha-16) into CHO-K1 cells.
A calcium measurement kit (Calcium 5 assay kit, Molecular Devices) was used to select an agonist compound. The principle of calcium measurement is that calcium-sensitive dyes are applied to cells, they enter into the cytoplasm of the cells during incubation, and when a ligand binds to a certain receptor to release calcium into the cytoplasm, the dyes bind to said calcium to induce fluorescence which is measured. This test method can sensitively measure only the intracellular calcium concentration change because any change that may occur outside the cells is masked by a masking dye.
The experimental procedure was as follows. One day before calcium measurement, CHO cells overexpressing hS1P1˜hS1P5 were dispensed into a 96-well plate (bottom clear black well) in 3×10^4 cells per well and cultured at 37° C. under 5% carbon dioxide condition for one day. 100 μl of calcium dyes mixed with Assay Buffer (1×HBSS, 20 mM HEPES, 2.5 mM probenecid, pH 7.4) were dispensed into culture solution in well and cultured at 37° C. for one hour. Test compounds were dissolved in 100% DMSO to prepare 1 μl solution per each concentration, and each solution was mixed with 199 μl Assay Buffer such that the concentrations were 50, 5, 0.5, 0.05, 0.005 and 0.0005 μM. The plate cultured with the calcium dyes was put into FlaxstationII (Molecular Devices), and the prepared test compounds (the final concentrations of the test compounds: 10, 1, 0.1, 0.01, 0.001 and 0.0001 μM) were programmed to be automatically inoculated in 50 μl per each well. For a total of 90 seconds, RFU (relative fluorescence unit) values were measured. The value of Reference (S1P substance 1 μM) deducting the blank value was set as 100%, and EC50 values of the test compounds were calculated by prism.

Chain of human sphingosine-1-phosphate 1 receptor (S1P1 receptor) (P21453 whole entry): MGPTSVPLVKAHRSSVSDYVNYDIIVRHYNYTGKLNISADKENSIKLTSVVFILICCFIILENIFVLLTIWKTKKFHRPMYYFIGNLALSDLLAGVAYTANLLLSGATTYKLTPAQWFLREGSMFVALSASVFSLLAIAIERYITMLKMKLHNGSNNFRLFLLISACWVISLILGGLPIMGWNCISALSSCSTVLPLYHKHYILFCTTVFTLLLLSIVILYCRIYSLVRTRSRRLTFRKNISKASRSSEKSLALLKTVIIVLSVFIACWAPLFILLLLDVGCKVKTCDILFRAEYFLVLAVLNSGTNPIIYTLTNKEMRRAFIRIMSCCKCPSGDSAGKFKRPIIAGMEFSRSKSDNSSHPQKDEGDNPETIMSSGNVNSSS

In the case of `CC(C)n1nc(Cl)c2cc(COc3ccc4c(c3)CCC(CN3CC[C@@H](C(=O)O)C3)=C4Cl)ccc21` [Example 151, (R)-1-[1-chloro-6-(3-chloro-1-isopropyl-1H-indazol-5-ylmethoxy)-3,4-dihydro-naphthalen-2-ylmethyl]-pyrrolidine-3-carboxylic acid], the “Lymphocyte count (degree of decrease in lymphocyte number)” value in experiment [1] (1 mg/kg) is −80%. Besides, in experiment [2], the half-maximal effective concentration (EC50) (as a rule, the concentration at which the effect is half-maximal) was 11 nM.

In the case of `Cc1c(-c2noc(-c3ccc4c(c3)c(C)nn4C(C)C)n2)ccc2c1CCN(CC(=O)O)C2` [Example 117, {6-[5-(1-isopropyl-3-methyl-1H-indazol-5-yl)-[1,2,4]oxadiazol-3-yl]-5-methyl-3,4-dihydro-1H-isoquinolin-2-yl}-acetic acid, trifluoroacetate], in experiment [1] (3 mg/kg), the “Lymphocyte count (degree of decrease in lymphocyte number)” value is listed as −80%. Also, the EC50 in experiment [2] was found to be 3 nM.

Take `CC(C)n1nc(Cl)c2cc(COc3ccc4c(c3)CCC(CN3CCC(F)(C(=O)O)CC3)=C4Cl)ccc21` [Example 154, 1-[1-chloro-6-(3-chloro-1-isopropyl-1H-indazol-5-ylmethoxy)-3,4-dihydro-naphthalen-2-ylmethyl]-4-fluoro-piperidine-4-carboxylic acid]: the “Lymphocyte count (degree of decrease in lymphocyte number)” value in experiment [1] (1 mg/kg) is −65%. For the same compound, the EC50 in experiment [2] worked out at 17 nM.

As for `CC1=C(CN2CC(C(=O)O)C2)CCc2cc(OCc3ccc4c(c3)c(Cl)nn4C(C)C)ccc21` [Example 146, 1-[6-(3-chloro-1-isopropyl-1H-indazol-5-ylmethoxy)-1-methyl-3,4-dihydro-naphthalen-2-ylmethyl]-azetidine-3-carboxylic acid], in experiment [1] (3 mg/kg), the “Lymphocyte count (degree of decrease in lymphocyte number)” value was −78%. For the same compound, in experiment [2], the EC50 came to 5 nM.

With `CC(C)n1nc(Cl)c2cc(COc3ccc4c(c3)CCC(CN3CCCC(C(=O)O)C3)=C4Cl)ccc21` (stereo not shown) [Example 155, 1-[1-chloro-6-(3-chloro-1-isopropyl-1H-indazol-5-ylmethoxy)-3,4-dihydro-naphthalen-2-ylmethyl]-piperidine-3-carboxylic acid], in experiment [1] (1 mg/kg), the “Lymphocyte count (degree of decrease in lymphocyte number)” value is −75%. Also, in experiment [2], the EC50 was 27 nM.

Regarding `CC1=C(CN2CCCC(C(=O)O)CC2)CCc2cc(OCc3ccc4c(c3)c(Cl)nn4C(C)C)ccc21` (stereo not shown) [Example 149, 1-[6-(3-chloro-1-isopropyl-1H-indazol-5-ylmethoxy)-1-methyl-3,4-dihydro-naphthalen-2-ylmethyl]-azepane-4-carboxylic acid], in experiment [1] (3 mg/kg), the “Lymphocyte count (degree of decrease in lymphocyte number)” value was −80%. The EC50 in experiment [2] was found to be 19 nM.

As to `CC(C)n1nc(Cl)c2cc(COc3ccc4c(c3)CCC(CN3CCC(C(=O)O)CC3)=C4Cl)ccc21` [Example 153, 1-[1-chloro-6-(3-chloro-1-isopropyl-1H-indazol-5-ylmethoxy)-3,4-dihydro-naphthalen-2-ylmethyl]-piperidine-4-carboxylic acid], in experiment [1] (1 mg/kg), the “Lymphocyte count (degree of decrease in lymphocyte number)” value is on record as −80%. Also, the EC50 in experiment [2] stood at 11 nM.

With `CC(C)n1nc(Cl)c2cc(COc3ccc4c(c3)CCC(CN3CCC(C(=O)O)CC3)=C4Cl)cnc21` [Example 159, 1-[1-chloro-6-(3-chloro-1-isopropyl-1H-pyrazolo[3,4-b]pyridin-5-ylmethoxy)-3,4-dihydro-naphthalen-2-ylmethyl]-piperidine-4-carboxylic acid], the “Lymphocyte count (degree of decrease in lymphocyte number)” value in experiment [1] (1 mg/kg) is given as −80%. Besides, the EC50 in experiment [2] came to 12 nM.
